Laboratory results: US7112565B2, “Stabilized pharmaceutical composition in lyophilized form” (Astellas Pharma Inc., priority 1999, dated 2006)

Key:
Assay type in all cases: physicochemical
[1] = Test Example 1: effect of stabilizer on stability of lyophilized compositions of Compound (II)
Procedure: Effect of Stabilizer in Stabilizing Lyophilized Compositions of Compound (II)
10 mg of Compound (II) and, as a stabilizer, 100 mg of lactose or 9 mg of sodium chloride were dissolved completely in 1 ml of water. The resulting solutions were lyophilized and maintained at 70° C. in glass vials. Nine days after, the resulting compositions were tested on their appearance, the residual amount of Compound (II), and others. As a control, used was a solution of Compound (II) without any stabilizers.

[2] = Test Example 6: dependence of stability on the pH of the solution before lyophilizing; details: for Residual amount / Water content / pH of reconstituted solution in 5 ml of purified water: 10 mg Compound (II) + 100 mg lactose
Procedure: Dependence of the Stability of Lyophilized Compositions of Compound (II) upon the pH Value of the Solution of the Composition before Lyophilizing
10 mg of Compound (II) and, as a stabilizer, 100 mg of lactose were dissolved completely in 1 ml of citrate-NaOH buffer having different pH value between pH 4.0 to 7.0. The resulting solutions having different pH values were lyophilized and maintained at 70° C. in glass vials. Nine days after, the resulting compositions were tested on their pH and the residual amount of Compound (II).

[3] = Test Example 7: dependence of stability on the water content of the composition; details: 10 mg Compound (II) + 50 mg lactose
Procedure: Dependence of the Stability of Lyophilized Compositions of Compound (II) upon the Water Content of the Composition
10 mg of Compound (II) and, as a stabilizer, 50 mg of lactose were dissolved completely in 1 ml of water. The resulting solutions were lyophilized and maintained at 70° C. in glass vials. Nine days after, the resulting compositions were tested on their pH, their water content and the residual amount of Compound (II).

[4] = Test Example 3: dependence of stability on the amount of lactose added; details: after 3 months at 40° C. and 75% humidity
[5] = Test Example 4: stability of lyophilized compositions of 200 mg of lactose and Compound (II) in vial
[6] = 10 mg Compound (II) + lactose (100 mg), 0 hours
[7] = 10 mg Compound (II) + lactose (100 mg), after 9 days at 70° C.
[8] = 10 mg Compound (II) + sodium chloride (9 mg), 0 hours
[9] = 10 mg Compound (II) + sodium chloride (9 mg), after 9 days at 70° C.
[10] = 10 mg Compound (II), control: nil stabilizer, 0 hours
[11] = 10 mg Compound (II), control: nil stabilizer, after 9 days at 70° C.
[12] = solution pH 4.0 before lyophilizing, 0 hours
[13] = solution pH 4.0 before lyophilizing, 9 days at 70° C.
[14] = solution pH 4.5 before lyophilizing, 0 hours
[15] = solution pH 4.5 before lyophilizing, 9 days at 70° C.
[16] = solution pH 5.0 before lyophilizing, 0 hours
[17] = solution pH 5.0 before lyophilizing, 9 days at 70° C.
[18] = solution pH 5.5 before lyophilizing, 0 hours
[19] = solution pH 5.5 before lyophilizing, 9 days at 70° C.
[20] = solution pH 6.0 before lyophilizing, 0 hours
[21] = solution pH 6.0 before lyophilizing, 9 days at 70° C.
[22] = solution pH 6.5 before lyophilizing, 0 hours
[23] = solution pH 6.5 before lyophilizing, 9 days at 70° C.
[24] = solution pH 7.0 before lyophilizing, 0 hours
[25] = solution pH 7.0 before lyophilizing, 9 days at 70° C.
[26] = water content at 0 hours 0.9%, after 9 days at 70° C.
[27] = water content at 0 hours 1.4%, after 9 days at 70° C.
[28] = water content at 0 hours 2.6%, after 9 days at 70° C.
[29] = water content at 0 hours 3.4%, after 9 days at 70° C.
[30] = water content at 0 hours 5.1%, after 9 days at 70° C.
[31] = 25 mg Compound (II) + 200 mg lactose, after 3 months at 40° C. and 75% humidity

CCCCCOc1ccc(-c2cc(-c3ccc(C(=O)NC4CC(O)C(O)NC(=O)C5C(O)C(C)CN5C(=O)C(C(O)CC(N)=O)NC(=O)C(C(O)C(O)c5ccc(O)c(OS(=O)(=O)[O-])c5)NC(=O)C5CC(O)CN5C(=O)C(C(C)O)NC4=O)cc3)no2)cc1.[Na+] (stereo not shown) [Compound (II)]
Appearance [1, 6]: White mass
Residual amount [1, 6]: 100.0%
Water content [1, 6]: 1.0%
pH of reconstituted solution in 1 ml of water [1, 6]: 6.4
Appearance [1, 7]: White mass
Residual amount [1, 7]: 99.5%
pH of reconstituted solution in 1 ml of water [1, 7]: 6.1
Appearance [1, 8]: White mass
Residual amount [1, 8]: 100.0%
Water content [1, 8]: 0.7%
pH of reconstituted solution in 1 ml of water [1, 8]: 6.7
Appearance [1, 9]: White mass
Residual amount [1, 9]: 75.9%
pH of reconstituted solution in 1 ml of water [1, 9]: 6.3
Appearance [1, 10]: White mass
Residual amount [1, 10]: 100.0%
Water content [1, 10]: 1.3%
pH of reconstituted solution in 1 ml of water [1, 10]: 7.1
Appearance [1, 11]: Slightly yellow mass
Residual amount [1, 11]: 8.0%
pH of reconstituted solution in 1 ml of water [1, 11]: 2.7
Stability of lyophilized composition (conclusion from Tables 1 and 2) ([1]; with lactose, sodium chloride, maltose or sucrose, compared with no stabilizer or other stabilizers): significantly stable
Residual amount ([2]; all solution pH values 4.0 to 7.0, 0 hours): 100%
Water content [2, 12]: 0.2%
pH of reconstituted solution in 5 ml of purified water [2, 12]: 3.9
Residual amount [2, 13]: 94.4%
pH of reconstituted solution in 5 ml of purified water [2, 13]: 4.0
Water content [2, 14]: 0.2%
pH of reconstituted solution in 5 ml of purified water [2, 14]: 4.4
Residual amount [2, 15]: 95.9%
pH of reconstituted solution in 5 ml of purified water [2, 15]: 4.5
Water content [2, 16]: 0.3%
pH of reconstituted solution in 5 ml of purified water [2, 16]: 4.8
Residual amount [2, 17]: 97.4%
pH of reconstituted solution in 5 ml of purified water [2, 17]: 4.9
Water content [2, 18]: 0.3%
pH of reconstituted solution in 5 ml of purified water [2, 18]: 5.4
Residual amount [2, 19]: 98.5%
pH of reconstituted solution in 5 ml of purified water [2, 19]: 5.4
Water content [2, 20]: 0.3%
pH of reconstituted solution in 5 ml of purified water [2, 20]: 5.8
Residual amount [2, 21]: 97.7%
pH of reconstituted solution in 5 ml of purified water [2, 21]: 5.8
Water content [2, 22]: 0.4%
pH of reconstituted solution in 5 ml of purified water [2, 22]: 6.4
Residual amount [2, 23]: 96.9%
pH of reconstituted solution in 5 ml of purified water [2, 23]: 6.4
Water content [2, 24]: 0.3%
pH of reconstituted solution in 5 ml of purified water [2, 24]: 6.8
Residual amount [2, 25]: 95.8%
pH of reconstituted solution in 5 ml of purified water [2, 25]: 6.8
Stability of composition (conclusion from Table 5) ([2]; after lyophilizing the solution at pH 4.0 to 7.0 at least, preferably pH 4.5 to 7.0): stable
pH of reconstituted solution in 1 ml of water ([3]; all water contents 0.9 to 5.1%, 0 hours): 7.1
Residual amount [3, 26]: 97.6%
Water content [3, 26]: 2.5%
pH of reconstituted solution in 1 ml of water [3, 26]: 7.5
Residual amount [3, 27]: 98.1%
Water content [3, 27]: 2.9%
pH of reconstituted solution in 1 ml of water [3, 27]: 7.1
Residual amount [3, 28]: 97.1%
Water content [3, 28]: 3.6%
pH of reconstituted solution in 1 ml of water [3, 28]: 6.8
Residual amount [3, 29]: 92.7%
Water content [3, 29]: 4.3%
pH of reconstituted solution in 1 ml of water [3, 29]: 6.8
Residual amount [3, 30]: 18.3%
Water content [3, 30]: 5.4%
pH of reconstituted solution in 1 ml of water [3, 30]: 3.5
Appearance ([4]; 10 mg Compound (II) + 20 mg lactose): White mass
pH of reconstituted solution in 1 ml of water ([4]; 10 mg Compound (II) + 50 mg lactose): 6.26
Clarity of reconstituted solution in 1 ml of water ([4]; 10 mg Compound (II) + 100 mg lactose): Clear
Residual amount [5, 31]: 101.2%
pH of reconstituted solution in 5 ml of purified water [5, 31]: 6.14
Total impurities ([5]; 50 mg Compound (II) + 200 mg lactose, after 21 days at 60° C.): 3.68%
Residual amount ([5]; 75 mg Compound (II) + 200 mg lactose, after 21 days at 60° C.): 97.7%
pH of reconstituted solution in 5 ml of purified water ([5]; 100 mg Compound (II) + 200 mg lactose, after 3 months at 40° C. and 75% humidity): 5.85
